Assay results: patent US10683311B2 (priority 2015, dated 2020)

Experiment: log P by HPLC on reversed-phase column (C18), EEC Directive 79/831 Annex V.A8
Type: physicochemical
Conditions: Method A: 40° C., 0.1% aqueous formic acid and acetonitrile
Protocol: In table 1, the log P values were determined in accordance with EEC Directive 79/831 Annex V.A8 by HPLC (High Performance Liquid Chromatography) on a reversed-phase column (C18), using the methods described below:
Method A: temperature: 40° C.; mobile phases: 0.1% aqueous formic acid and acetonitrile; linear gradient from 10% acetonitrile to 95% acetonitrile;
Method B: temperature: 40° C.; mobile phases: 0.001 molar ammonium acetate solution in water and acetonitrile; linear gradient from 10% acetonitrile to 95% acetonitrile.
Calibration was carried out using unbranched alkan-2-ones (comprising 3 to 16 carbon atoms) with known log P values (determination of the log P values by the retention times using linear interpolation between two successive alkanones). lambda-max-values were determined using UV-spectra from 200 nm to 400 nm and the peak values of the chromatographic signals.

Row | SMILES | logP
1 | C[Si]1(c2ccccc2)c2c(F)cccc2Oc2c(Cl)nc3ccccc3c21 (stereo not drawn) [6-chloro-11-fluoro-12-methyl-12-phenyl-12H-[1,4]benz-oxasilino[2,3-c]quinoline] | 5.94
2 | C[Si](C)(O)c1ccccc1Oc1cnc2ccccc2c1 [I.002] | 2.82
3 | C[Si](C)(O)c1c(F)cccc1Oc1cnc2ccccc2c1 [I.003] | 2.90
4 | CC[Si](C)(C)c1c(F)cccc1Oc1cnc2ccccc2c1 [I.005] | 5.47
5 | C=C[Si](C)(C)c1c(F)cccc1Oc1cnc2ccccc2c1 [I.006] | 5.24
6 | C[Si](C)(CCl)c1c(F)cccc1Oc1cnc2ccccc2c1 [I.007] | 5.00
7 | C[Si](C)(C)c1ccccc1Nc1cnc2ccccc2c1 [I.011] | 3.46
8 | C[Si](C)(C)c1ccccc1Cc1cnc2ccccc2c1 [I.012] | 4.06
9 | C[Si](C)(c1ccccc1)c1ccccc1Cc1cnc2ccccc2c1 [I.013] | 4.20
10 | C[Si](C)(c1cccs1)c1ccccc1Cc1cnc2ccccc2c1 [I.015] | 4.04
11 | C[Si](C)(c1ccc(Oc2ccccc2)cc1)c1ccccc1Cc1cnc2ccccc2c1 [I.016] | 5.62
12 | C[Si](C)(C)c1c(F)cccc1C(=O)c1cnc2ccccc2c1 [I.017] | 4.49
13 | C[Si](C)(O)c1cc(F)ccc1Oc1cnc2c(Cl)cccc2c1 [I.018] | 3.50
14 | C[Si](C)(C)c1ccccc1Oc1cnc2c(F)c(F)ccc2c1 [I.020] | 5.39
15 | C[Si](C)(C)c1c(F)cccc1Oc1cnc2c(F)c(F)ccc2c1 [I.021] | 5.32
16 | C[Si](C)(O)c1c(F)cccc1Oc1cnc2c(F)c(F)ccc2c1 [I.022] | 2.35
17 | C[Si](C)(O)c1ccccc1Oc1cnc2c(F)c(F)ccc2c1 [I.023] | 3.27
18 | Cc1nc2c(F)c(F)ccc2cc1Oc1cccc(F)c1[Si](C)(C)O [I.025] | 3.55
19 | Cc1nc2c(F)c(F)ccc2cc1Oc1cccc(F)c1[Si](C)(C)c1ccccc1 [I.028] | 6.01
20 | Cc1nc2c(F)c(F)ccc2cc1Oc1cc(N)ccc1[Si](C)(C)C [I.029] | 4.59
21 | Cc1nc2c(F)c(F)ccc2cc1Oc1cccc(F)c1[Si](C)(C)c1cccs1 [I.030] | 5.65
22 | Cc1nc2c(F)c(F)ccc2cc1Oc1cc([N+](=O)[O-])ccc1[Si](C)(C)C [I.031] | 5.34

Row | SMILES | logP
23 | COc1cccc(Oc2cc3ccc(F)c(F)c3nc2C)c1[Si](C)(C)O [I.033] | 3.69
24 | Cc1nc2c(F)c(F)ccc2cc1Oc1cccc(Cl)c1[Si](C)(C)O [I.034] | 3.83
25 | Cc1nc2c(F)c(F)ccc2cc1Oc1cc(F)ccc1[Si](C)(C)O [I.035] | 3.55
26 | Cc1nc2c(F)c(F)ccc2cc1Oc1cccc(OC(F)(F)F)c1[Si](C)(C)O [I.036] | 4.20
27 | Cc1nc2c(F)c(F)ccc2cc1Oc1ccc(F)cc1[Si](C)(C)O [I.037] | 3.55
28 | COc1cccc(Oc2cc3ccc(F)c(F)c3nc2C)c1[Si](C)(C)C [I.038] | 5.85
29 | CC[Si](C)(C)c1c(C#N)cccc1Oc1cc2ccc(F)c(F)c2nc1C [I.039] | 5.22
30 | Cc1nc2c(F)c(F)ccc2cc1Cc1ccccc1[Si](C)(C)C [I.040] | 5.54
31 | CC[Si](C)(C)c1ccccc1Oc1cnc2c(c1)CCCC2 [I.041] | 3.68
32 | Cc1c(Oc2cccc(F)c2[Si](C)(C)C)cnc2ccccc12 [I.042] | 5.62
33 | CC[Si](C)(C)c1c(C#N)cccc1Oc1c(C)nc2c(F)c(F)ccc2c1[Si](C)(C)CC [I.043] | 7.36
34 | C=Cc1nc2ccccc2cc1Oc1cccc(F)c1[Si](C)(C)C [I.044] | 6.30
35 | C[Si](C)(C)c1c(F)cccc1Oc1cc2ccccc2nc1-c1ccccc1 [I.045] | 6.40
36 | Cc1nc2ccccc2cc1Oc1cccc(F)c1[Si](C)(C)C [I.046] | 5.08
37 | Cc1nc2ccccc2cc1Oc1ccccc1[Si](C)(C)O [I.048] | 2.16
38 | Cc1nc2ccccc2cc1Oc1cccc(F)c1[Si](C)(C)O [I.049] | 2.41
39 | Cc1nc2ccccc2cc1Oc1cccc(OC(F)(F)F)c1[Si](C)(C)O [I.050] | 3.35
40 | Cc1nc2ccccc2cc1Oc1cccc(Cl)c1[Si](C)(C)O [I.051] | 2.80
41 | CC[Si](C)(C)c1c(F)cccc1Oc1cc2ccccc2nc1C [I.052] | 5.62
42 | Cc1nc2ccccc2cc1Oc1cccc(F)c1[SiH](C)C [I.053] | 4.56
43 | Cc1nc2ccccc2cc1Nc1ccccc1[Si](C)(C)C [I.054] | 2.46
44 | Cc1nc2ccccc2cc1Nc1ccc(F)cc1[Si](C)(C)C [I.055] | 2.63

Row | SMILES | logP
45 | CCN(c1ccccc1[Si](C)(C)C)c1cc2ccccc2nc1C [I.056] | 3.16
46 | CC[Si](C)(C)c1c(F)cccc1Oc1cc2ccccc2[n+]([O-])c1C [I.057] | 4.54
47 | Cc1c(Nc2ccccc2[Si](C)(C)C)cc2ccccc2[n+]1[O-] [I.058] | 3.62
48 | C[Si](C)(C)c1c(F)cccc1Oc1cc2ccccc2nc1O [I.059] | 3.85
49 | CCOc1nc2ccccc2cc1Oc1cccc(F)c1[Si](C)(C)C [I.060] | 6.79
50 | C[Si](C)(C)c1c(F)cccc1Oc1cc2ccccc2nc1C1CC1 [I.061] | 6.90
51 | C[Si](C)(C)c1c(F)cccc1Oc1cc2ccccc2nc1Cl [I.063] | 5.90
52 | CSc1nc2ccccc2cc1Oc1cccc(F)c1[Si](C)(C)C [I.064] | 6.79
53 | C[Si](C)(C)c1c(F)cccc1Oc1cc2ccccc2nc1C(F)F [I.065] | 5.45
54 | C[Si](C)(C)c1c(F)cccc1Nc1cc2ccccc2nc1C(F)F [I.066] | 5.68
55 | C[Si](C)(C)c1c(F)cccc1Oc1cc2ccccc2nc1-c1ccsc1 [I.067] | 6.66
56 | C[Si](C)(C)c1ccccc1Oc1cnc2ccccc2n1 [I.068] | 5.05
57 | C[Si](C)(C)c1c(F)cccc1Oc1cnc2ccccc2n1 [I.069] | 5.22
58 | C[Si](C)(O)c1ccccc1Oc1cnc2ccccc2n1 [I.070] | 2.86
59 | C[Si](C)(O)c1c(F)cccc1Oc1cnc2ccccc2n1 [I.071] | 3.01
60 | CC(C)(C)[Si](C)(C)c1ccccc1Oc1cnc2ccccc2n1 [I.072] | 6.30
61 | CC(C)C[Si](C)(C)c1ccccc1Oc1cnc2ccccc2n1 [I.073] | 6.33
62 | CC[Si](CC)(CC)c1ccccc1Oc1cnc2ccccc2n1 [I.074] | 6.43
63 | CC(C)[Si](C)(C)c1ccccc1Oc1cnc2ccccc2n1 [I.075] | 5.91
64 | CC[Si](C)(C)c1ccccc1Oc1cnc2ccccc2n1 [I.076] | 5.48
65 | CC[Si](C)(C)c1ccccc1Oc1cnc2c(F)c(F)ccc2n1 [I.077] | 5.62
66 | C[Si](C)(C)c1c(F)cccc1Oc1cnc2c(F)c(F)ccc2n1 [I.078] | 5.20

Same assay, conditions: Method B: 40° C., 0.001 molar ammonium acetate solution in water and acetonitrile

Row | SMILES | logP
67 | C[Si](C)(O)c1ccccc1Nc1cnc2ccccc2c1 [I.009] | 3.20

Same assay, conditions: reversed-phase HPLC column (C18), Method A: 40° C., 0.1% aqueous formic acid and acetonitrile

Row | SMILES | chromatographic logP
68 | C[SiH](c1ccccc1)c1c(Oc2cccc(F)c2)c(Cl)nc2ccccc12 (stereo not drawn) [2-chloro-3-(3-fluorophenoxy)-4-[methyl(phenyl)silyl]quinoline] | 5.9
69 | C[Si](C)(c1ccc(Cl)cc1)c1ccccc1Cc1cnc2ccccc2c1 [I.014, 3-{2-[(4-chlorophenyl)(dimethyl)silyl]benzyl}quinoline] | 4.74
